For this test, the system named is GUMC-403. Description: viability at highest tested concentration (max response) relative to DMSO (% of DMSO control); higher = less cytotoxic. The settings on record: library / dose series: MIPE library, 11-point 1:3 dilution, 48 h. A digest of the protocol:
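Conditionally reprogrammed GUMC-403 papilloma cells from a patient were plated at 700/well in 5 μL F + Y medium in 1536-well plates and left overnight at 37 °C. A pin tool then added 23 nL of library compounds as an 11-point 1:3 series, for 48 h. CellTiter-Glo luminescence was read on a ViewLux and scaled with vehicle wells set to 100% and empty wells to 0%. Each value gives viability at the highest tested concentration relative to vehicle control.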

Where the note is “top concentration 46.1 µM”, `O=[S+]([O-])(CC1CS1)c1ccc(Oc2ccccc2)cc1` (stereo not given) registered a viability of 122.

As to `CC\1=C(C(=O)N(\C=C1)C2=CC=C(C=C2)C3=NC=CO3)/C4=CC5=CN=C(N)N=C5C=C4`, the viability (top concentration 46.1 µM) was 79.7. The same measure, in the same setting: in the case of `CC1COC2(CCN(CC2)C/3=N/C(=O)C4=CC(=CC(=C4S3)[N+]([O-])=O)C(F)(F)F)O1` (stereo not given) it was 122. The same measure, in the same setting: for `COC1=CC2=NC=CC(=C2C=C1)OC3=CN=C(NC(=O)C/4=C(C)/N(CC(C)(C)O)N(C4=O)C5=CC=CC=C5)C=C3` the value was 84.6. Take `CN(C)CCOc1cc(-c2cn[nH]c2)ccc1NC(=O)C1COc2ccccc2O1` (stereo not given): the viability (top concentration 46.1 µM) came out at 117. `CC[C@@]1(O)C(=O)OC\C2=C1\C=C3/N(CC4=CC5=C(C=CC(=C5CN(C)C)O)N=C34)C2=O` displayed a viability (top concentration 46.1 µM) of 66.5. Take `C=C1C(=O)OC(CCCCCCCC)C1C(=O)O` (stereo not given): the viability (top concentration 46.1 µM) was found to be 121. The same measure, in the same setting: in the case of `C/C(=C\C(=O)Nc1ccccc1C(=O)O)c1ccc2ccccc2c1` it was 127; in that of `CC(C)(C)Cn1c(N)nc2ccc(-c3[nH]c(C(C)(C)C)nc3-c3ccc(F)cc3)nc21`, 76.7; in that of `CN(C)C(=O)c1ccc([S+](=O)([O-])c2ccc(NC(=O)[C@@](C)(O)C(F)(F)F)c(Cl)c2)cc1`, 113. For `CC(C)(C)c1cc(C(=O)O)c(NC(=O)Nc2ccc3[nH]ncc3c2)s1`, the viability (top concentration 46.1 µM) was determined as 87.6. As for `CCOC(=O)/C=C/[C@H](C[C@@H]1CCNC1=O)NC(=O)[C@@H](CC(=O)[C@@H](NC(=O)c1cc(C)on1)C(C)C)Cc1ccc(F)cc1`, for the setting “top concentration 46.1 µM”, the viability amounted to 142. On the same count and under the same terms, for `OC1=CC=C(C=C1)\C2=C\C(=O)C3=C(O2)C=C(O)C=C3O` the value was 138; for `CCN1CCCC1CNC(=O)c1cc([S+](N)(=O)[O-])ccc1OC` (stereo not given), 134.

In the case of `O=C1c2c(O)cccc2[C@H]([C@@H]2O[C@H](CO)[C@@H](O)[C@H](O)[C@H]2O)c2cc(CO)cc(O)c21`, under “top concentration 46.1 µM”, the viability came to 119. As for `C[C@@]12C[C@@]3(O)O[C@@H](O1)[C@]1(COC(=O)c4ccccc4)[C@H]3C[C@@]12O[C@@H]1O[C@H](CO)[C@@H](O)[C@H](O)[C@H]1O`, the viability (top concentration 46.1 µM) is 115. Still for that read-out and setting: for `CC(NC(C)(C)C)C(=O)c1cccc(Cl)c1` (stereo not given) the value was 127.

The compound `COc1cccc(OC)c1-c1cc(C(=O)NC2(C(=O)O)C3CC4CC(C3)CC2C4)nn1-c1ccnc2cc(Cl)ccc12` (stereo not given) yielded a viability (top concentration 46.1 µM) of 124. Still for that read-out and setting: for `COc1cccc2c1C(=O)c1c(O)c3c(c(O)c1C2=O)C[C@@](O)(C(=O)CO)C[C@@H]3O[C@H]1C[C@H](N)[C@H](O[C@H]2CCCCO2)[C@H](C)O1` the value was 57.9. Same read-out and setting: for `CC(C)(C(=O)NCC(F)(F)C(F)(F)F)C(=O)N[C@@H]1C(=O)Nc2ccccc2-c2ccccc21` the value was 88.8; for `CCc1cc2c(cc1N1CCC(N3CCOCC3)CC1)C(C)(C)c1[nH]c3cc(C#N)ccc3c1C2=O`, 97.8; for `Oc1ccc(C2CCN(c3ccnc4ccccc34)CC2)cc1O`, 92.8.

On to `CC(S)C(=O)NCC(=O)O` (stereo not given), for which, under “top concentration 46.1 µM”, the viability stood at 135.

Where the note is “top concentration 46.1 µM”, `CC(C)(S)[C@@H](N)C(=O)O` returned a viability of 128. On the same count and under the same terms, for `O=c1[nH]c2ccccc2n1C1CCN(Cc2ccc(-c3nc4cc5nc[nH]c5cc4nc3-c3ccccc3)cc2)CC1` the value was 103; for `OC[C@@H](O)[C@@H](O)[C@H](O)[C@@H](O)CO`, 128.

Consider `CC(=O)O.Cc1c(-c2ccc(O)cc2)n(Cc2ccc(OCCN3CCCCCC3)cc2)c2ccc(O)cc12`, for which the viability (top concentration 46.1 µM) stood at 130. On the same count and under the same terms, for `CC(C)c1nc(CN(C)C(=O)N[C@H](C(=O)N[C@@H](Cc2ccccc2)C[C@H](O)[C@H](Cc2ccccc2)NC(=O)OCc2cncs2)C(C)C)cs1` the value was 99.7; for `CNC1[C@@H](O)C(O[C@@H]2C(O)C(O[C@H]3O[C@H]([C@@H](C)NC)CC[C@H]3N)[C@@H](N)C[C@H]2N)OC[C@]1(C)O` (stereo not given in full), 101; for `C[C@@H]\1CC(=O)N\N=C1C2=CC=C(NN=C(C#N)C#N)C=C2`, 92.1. Same read-out and setting: in the case of `CN(C)C(=O)C(CCN1CCC(O)(c2ccc(Cl)cc2)CC1)(c1ccccc1)c1ccccc1` it was 103; in that of `OC(COC1=C2C(=O)\C=C(/OC2=CC=C1)C([O-])=O)COC3=C4C(=O)\C=C(/OC4=CC=C3)C([O-])=O`, 113; in that of `C/C=C(\C)C(=O)N[C@@H](c1ccccc1)[C@@H](O)C(=O)O[C@H]1C[C@@]2(O)[C@@H](OC(=O)c3ccccc3)[C@@H]3[C@]4(OC(C)=O)CO[C@@H]4C[C@H](O)[C@@]3(C)C(=O)[C@H](OC(C)=O)C(=C1C)C2(C)C`, 111.

With `CCOC(=O)c1cncn1[C@H](C)c1ccccc1`, where the note is “top concentration 46.1 µM”, the viability was 111. Same read-out and setting: in the case of `NCC1CCC(C(=O)O)CC1` (stereo not given) it was 115; in that of `CN1CCN(C2=Nc3cc(Cl)ccc3Nc3ccccc32)CC1`, 109; in that of `O=C(N[C@H]1CN2CCC1CC2)c1ccc(Cl)cc1`, 121. Still for that read-out and setting: in the case of `O=C(O)c1cccnc1Nc1cccc(C(F)(F)F)c1` it was 129. Consider `CCOc1cc(N)c(Cl)cc1C(=O)NCC1CN(Cc2ccc(F)cc2)CCO1` (stereo not given), for which the viability (top concentration 46.1 µM) was 85.7. The same measure, in the same setting: in the case of `NC/1=N/C2=C([NH]C=N2)C(=S)N1` it was 97.1. Same read-out and setting: in the case of `OC1CCC(CC1)N2\C=N/C3=C(C2=N)C(=C([N]3CC4=CC=CC=C4)C5=CC=CC=C5)C6=CC=CC=C6` (stereo not given) it was 126; in that of `CC(C)(F)C[C@H](N[C@@H](c1ccc(-c2ccc([S+](C)(=O)[O-])cc2)cc1)C(F)(F)F)C(=O)NC1(C#N)CC1`, 110; in that of `C[C@]12CCC(=O)C=C1CC[C@@H]1[C@@H]2[C@@H](O)C[C@@]2(C)[C@H]1CC[C@]2(O)C(=O)CO`, 135.

As for `CC1=CC=C(C=C1)N(C\C2=N\CCN2)C3=CC=CC(=C3)O`, the viability (top concentration 46.1 µM) was determined as 116.

For `CC(C)NCC(O)c1ccc(O)c(O)c1` (stereo not given), where the note is “top concentration 46.1 µM”, the viability was 127. The same measure, in the same setting: in the case of `C=CCc1cc(OC)c(O)c(C(=O)NCCO)c1` it was 118. Turning to `CCCCC(F)(F)[C@@]1(O)CC[C@H]2[C@@H](CC(=O)[C@@H]2CCCCCCC(=O)O)O1`, the viability (top concentration 46.1 µM) is 110. For the compound `COC1=C(OCCCN2CCOCC2)C=C3N=CC=C(OC4=CC=C(C=C4F)\C5=C\N=C(\NC6=CC=C(F)C=C6)N(C)C5=O)C3=C1`, the viability (top concentration 46.1 µM) came to 72.6. Same read-out and setting: for `N#CC1(c2cccc(C(=O)Nc3cc(Oc4ccc5nc(NC(=O)C6CC6)sc5n4)ccc3F)c2Cl)CC1` the value was 71.8; for `O=C(Nc1cc2cc[nH]c2cn1)c1ccccc1`, 55.2; for `CN1CCc2c(c3ccccc3n2Cc2ccc(C(=O)NO)cc2)C1`, 107. The same measure, in the same setting: for `C=CCc1ccc(O)c(-c2ccc(O)c(CC=C)c2)c1` the value was 80.6. The same measure, in the same setting: in the case of `FC1=CC=C(C=C1)N2/C=C\C=C(C(=O)NC3=CC=C(OC4=C5C=C[NH]C5=NC=C4)C(=C3)F)/C2=O` it was 98.8; in that of `O=C(CCCN1CCN(c2ccc(F)cc2)CC1)NC1c2ccccc2CSc2ccccc21` (stereo not given), 93.5. As to `OC(=O)\C1=C\N(C2CC2)C3=CC(=C(F)C=C3C1=O)N4CCNCC4`, under “top concentration 46.1 µM”, the viability was found to be 105. The same measure, in the same setting: for `Nc1cccc([S+](=O)([O-])N2CCCN([S+](=O)([O-])c3ccc4c(c3)OCCO4)CC2)c1` the value was 87; for `O=S(=O)([O-])CCS.[Na+]`, 147; for `O=C(c1ccc(Nc2nccc(-c3cc4ccccc4s3)n2)cc1)N1CCC(N2CCCC2)CC1`, 41. On the same count and under the same terms, for `CN(C)c1ccccc1CN1CCCN(Cc2ccccc2N(C)C)C1c1ccncc1` the value was 97.4.

Consider `CC[C@@]1([C@@H]2O[C@@H]([C@H]3O[C@@](O)(CO)[C@H](C)C[C@@H]3C)C[C@@H]2C)CC[C@H]([C@]2(C)CC[C@]3(C[C@H](O)[C@@H](C)[C@@H]([C@@H](C)[C@@H](OC)[C@H](C)C(=O)[O-])O3)O2)O1`, for which the viability (top concentration 23 µM) was 116. For `CCC(C)(Oc1ccc(C2(c3ccc(OC(C)(CC)C(=O)O)cc3)CCCCC2)cc1)C(=O)O` (stereo not given), the viability (top concentration 46.1 µM) came to 131.

The compound `Cc1cc2c(cc1C1(c3ccc(C(=O)O)cn3)CC1)C(C)(C)CCC2(C)C` displayed a viability (top concentration 46.1 µM) of 129.

Regarding `Nc1nc(Cl)nc2c1ncn2[C@@H]1O[C@H](CO)[C@@H](O)[C@@H]1F`, the viability (top concentration 46.1 µM) stood at 104. The same measure, in the same setting: for `CCc1cc(/C(C)=N/OCc2ccc(C3CCCCC3)c(C(F)(F)F)c2)ccc1CN1CC(C(=O)O)C1` the value was 116.

With `OC(Cn1cncn1)(Cn1cncn1)c1ccc(F)cc1F`, the viability (top concentration 46.1 µM) was 130.

On to `CN1C(=O)COc2c(C(=O)NC3CN4CCC3CC4)cc(Cl)cc21` (stereo not given), for which the viability (top concentration 46.1 µM) turned out to be 107.

Turning to `C=C[C@H]1CN2CCC1C[C@H]2[C@H](O)c1ccnc2ccc(OC)cc12` (stereo not given in full), the viability (top concentration 46.1 µM) is 98.4. Take `O=C(O)CCc1ccc(NCc2cccc(Oc3ccccc3)c2)cc1`: under “top concentration 46.1 µM”, the viability came out at 122. Compound `C[C@@H](c1ncncc1F)[C@](O)(Cn1cncn1)c1ccc(F)cc1F` returned a viability (top concentration 46.1 µM) of 96.3. The same measure, in the same setting: in the case of `CC(N[C@H]1CCCC[C@@H]1NC(=O)c1ccc(Cl)cc1)c1cccc2ccccc12` (stereo not given in full) it was 91.2; in that of `COc1cccc2c1[C@]13CCN(CC4CC4)[C@H](C2)[C@]1(OC)CCC(=O)C3`, 107; in that of `C[C@@H](CN1CC(=O)NC(=O)C1)N1CC(=O)NC(=O)C1`, 118. Take `O=C1\C=C/C=C2/[C@H]3CNC[C@H](C3)CN12`: the viability (top concentration 46.1 µM) was determined as 136. Regarding `COc1c(C)c2c(c(O)c1C/C=C(\C)CCC(=O)O)C(=O)OC2`, for the setting “top concentration 46.1 µM”, the viability came to 106. Same read-out and setting: in the case of `C[S+](=O)([O-])Nc1ccc([N+](=O)[O-])cc1Oc1ccccc1` it was 113.

The record behind these values is the supplement of paper PMC6723410.
